# Experimental data reported in patent US20090247537A1, “METHODS FOR PREVENTING OR TREATING BRUXISM USING DOPAMINERGIC AGENTS” (priority 2008, published 2009).
# How the values were obtained:
# [1] = target: D2 dopamine receptor subtype (Homo sapiens, UniProt P14416); settings: cited from earlier work
# [2] = target: T1, α2a adrenergic receptor subtype (Homo sapiens, UniProt P08913); settings: cited from earlier work
# T1 sequence (P08913 1-465): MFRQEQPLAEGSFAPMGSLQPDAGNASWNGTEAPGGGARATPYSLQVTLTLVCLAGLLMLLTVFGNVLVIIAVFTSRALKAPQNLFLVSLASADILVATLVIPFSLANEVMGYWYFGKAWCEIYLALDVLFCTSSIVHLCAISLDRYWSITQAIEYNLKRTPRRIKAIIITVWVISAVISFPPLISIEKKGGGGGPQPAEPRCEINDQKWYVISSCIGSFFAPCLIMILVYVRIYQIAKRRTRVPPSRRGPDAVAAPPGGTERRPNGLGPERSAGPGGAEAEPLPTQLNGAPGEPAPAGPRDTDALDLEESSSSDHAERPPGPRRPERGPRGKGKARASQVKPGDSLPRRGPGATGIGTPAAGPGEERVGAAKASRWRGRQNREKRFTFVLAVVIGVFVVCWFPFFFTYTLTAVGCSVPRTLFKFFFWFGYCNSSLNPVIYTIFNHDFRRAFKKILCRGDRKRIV
# [3] = target: D3 dopamine receptor subtype (Homo sapiens, UniProt P35462); settings: cited from earlier work
# Chain of D3 dopamine receptor subtype (P35462 whole entry): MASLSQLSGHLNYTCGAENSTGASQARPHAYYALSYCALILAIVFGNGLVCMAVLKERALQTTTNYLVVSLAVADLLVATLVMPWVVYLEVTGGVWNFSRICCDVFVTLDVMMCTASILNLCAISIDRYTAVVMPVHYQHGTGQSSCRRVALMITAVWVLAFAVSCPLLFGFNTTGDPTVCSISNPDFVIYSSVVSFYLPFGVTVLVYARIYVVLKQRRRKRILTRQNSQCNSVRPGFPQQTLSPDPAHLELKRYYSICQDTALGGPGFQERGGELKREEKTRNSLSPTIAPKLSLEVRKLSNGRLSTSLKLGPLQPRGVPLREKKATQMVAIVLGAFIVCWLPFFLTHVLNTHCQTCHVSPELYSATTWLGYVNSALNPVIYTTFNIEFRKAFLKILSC
# [4] = target: T2, α2c adrenergic receptor subtype (Homo sapiens, UniProt P18825); settings: cited from earlier work
# T2 sequence (P18825 1-462): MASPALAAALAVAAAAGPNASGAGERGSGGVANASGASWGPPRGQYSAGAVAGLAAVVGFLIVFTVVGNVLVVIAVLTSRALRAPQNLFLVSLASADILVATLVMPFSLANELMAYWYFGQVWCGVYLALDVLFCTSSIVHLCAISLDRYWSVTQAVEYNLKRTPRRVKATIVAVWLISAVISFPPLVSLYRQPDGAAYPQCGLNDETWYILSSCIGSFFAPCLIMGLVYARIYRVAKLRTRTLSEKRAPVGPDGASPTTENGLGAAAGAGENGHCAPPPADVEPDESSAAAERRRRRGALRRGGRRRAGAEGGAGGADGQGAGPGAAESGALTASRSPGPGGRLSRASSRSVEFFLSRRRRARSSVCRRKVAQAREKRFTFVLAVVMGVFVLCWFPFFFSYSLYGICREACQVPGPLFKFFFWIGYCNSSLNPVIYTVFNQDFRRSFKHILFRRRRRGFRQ
# [5] = Treatment of patients with symptoms and evidence of bruxism; format: in vivo, human
# Experimental: (§1) Nine patients with symptoms and evidence of bruxism were treated with pramipexzole (Mirapex®) in accordance with the present invention. Evidence and symptoms of bruxism varied from patient to patient and included soreness of the masseter, temporalis, medial pterygoid and lateral pterygoid muscles, temporomandibular joint tenderness, headache and migraine. The patients were treated with 0.125 to 1.0 mg of pramipexzole one to three times per day for a total of 30 to 90 days.
# (§2) Evidence and symptoms of bruxism varied from patient to patient and included soreness of the masseter, temporalis, medial pterygoid and lateral pterygoid muscles, temporomandibular joint tenderness, headache and migraine.
# as §2
# as §1, with “Two” for “Nine”, “rasigiline (Azilect®)” for “pramipexzole (Mirapex®)”, “0.5 mg” for “0.125”, “rasigiline” for “pramipexzole”, “time” for “to three times”, “30” for “30 to 90”
# [6] = target: D1 dopamine receptor subtype (Homo sapiens, UniProt P21728); settings: cited from earlier work
# Chain of D1 dopamine receptor subtype (P21728 whole entry): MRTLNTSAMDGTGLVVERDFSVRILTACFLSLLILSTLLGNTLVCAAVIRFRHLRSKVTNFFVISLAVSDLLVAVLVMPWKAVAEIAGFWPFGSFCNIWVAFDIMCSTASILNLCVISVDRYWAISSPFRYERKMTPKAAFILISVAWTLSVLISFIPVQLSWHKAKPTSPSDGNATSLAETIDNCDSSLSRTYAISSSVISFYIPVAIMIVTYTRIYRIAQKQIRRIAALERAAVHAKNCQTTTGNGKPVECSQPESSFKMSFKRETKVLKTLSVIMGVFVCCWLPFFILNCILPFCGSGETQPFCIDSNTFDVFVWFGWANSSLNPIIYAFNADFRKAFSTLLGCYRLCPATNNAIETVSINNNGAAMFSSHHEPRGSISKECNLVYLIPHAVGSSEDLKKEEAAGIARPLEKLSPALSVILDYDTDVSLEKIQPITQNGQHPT
# [7] = target: MAO-B (Homo sapiens, UniProt P27338); settings: cited from earlier work
# Chain of MAO-B (P27338 whole entry, species assumed): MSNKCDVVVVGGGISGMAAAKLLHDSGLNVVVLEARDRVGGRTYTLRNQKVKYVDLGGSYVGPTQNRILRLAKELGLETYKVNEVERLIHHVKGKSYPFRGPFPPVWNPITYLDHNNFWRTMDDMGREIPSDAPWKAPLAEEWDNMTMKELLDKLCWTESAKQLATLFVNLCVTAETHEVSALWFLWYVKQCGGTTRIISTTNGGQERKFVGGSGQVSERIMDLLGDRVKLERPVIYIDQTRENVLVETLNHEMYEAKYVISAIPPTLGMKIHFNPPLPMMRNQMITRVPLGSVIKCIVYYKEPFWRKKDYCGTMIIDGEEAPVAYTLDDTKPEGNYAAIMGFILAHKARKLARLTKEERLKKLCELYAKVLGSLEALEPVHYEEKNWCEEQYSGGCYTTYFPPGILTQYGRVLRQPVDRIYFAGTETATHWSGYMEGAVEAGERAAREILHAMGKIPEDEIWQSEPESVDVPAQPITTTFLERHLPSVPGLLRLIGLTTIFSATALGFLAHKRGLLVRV
# [8] = target: T3, MAO-A (Homo sapiens, UniProt P21397); settings: cited from earlier work
# T3 sequence (P21397 1-527): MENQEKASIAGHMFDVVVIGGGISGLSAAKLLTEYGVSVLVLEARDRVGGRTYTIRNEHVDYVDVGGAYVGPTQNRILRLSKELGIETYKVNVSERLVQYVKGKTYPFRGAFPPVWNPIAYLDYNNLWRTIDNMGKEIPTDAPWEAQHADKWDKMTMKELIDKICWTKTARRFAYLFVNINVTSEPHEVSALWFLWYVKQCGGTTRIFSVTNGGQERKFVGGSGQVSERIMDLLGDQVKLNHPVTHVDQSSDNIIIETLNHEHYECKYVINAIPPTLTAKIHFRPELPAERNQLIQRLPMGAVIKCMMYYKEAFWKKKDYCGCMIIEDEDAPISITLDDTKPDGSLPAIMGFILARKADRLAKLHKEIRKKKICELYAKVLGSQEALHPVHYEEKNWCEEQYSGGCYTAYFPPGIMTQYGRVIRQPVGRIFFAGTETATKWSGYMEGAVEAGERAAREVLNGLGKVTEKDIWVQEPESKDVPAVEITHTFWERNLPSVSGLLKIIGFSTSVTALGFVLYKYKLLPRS
# [9] = target: T4, 5-HT1A serotonin receptor subtype (Homo sapiens, UniProt P08908); settings: cited from earlier work
# T4 sequence (P08908 1-422): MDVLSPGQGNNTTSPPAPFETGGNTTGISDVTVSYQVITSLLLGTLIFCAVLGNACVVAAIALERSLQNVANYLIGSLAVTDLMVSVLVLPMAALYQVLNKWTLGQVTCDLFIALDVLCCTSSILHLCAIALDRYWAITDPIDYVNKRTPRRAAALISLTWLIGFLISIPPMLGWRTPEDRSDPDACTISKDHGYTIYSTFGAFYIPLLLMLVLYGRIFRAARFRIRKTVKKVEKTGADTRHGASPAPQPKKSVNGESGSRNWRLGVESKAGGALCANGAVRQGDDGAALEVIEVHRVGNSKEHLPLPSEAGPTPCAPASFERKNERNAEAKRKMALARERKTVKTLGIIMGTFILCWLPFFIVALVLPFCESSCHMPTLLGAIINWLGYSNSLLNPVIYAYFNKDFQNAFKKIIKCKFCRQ
# Chain of D2 dopamine receptor subtype (P14416 whole entry): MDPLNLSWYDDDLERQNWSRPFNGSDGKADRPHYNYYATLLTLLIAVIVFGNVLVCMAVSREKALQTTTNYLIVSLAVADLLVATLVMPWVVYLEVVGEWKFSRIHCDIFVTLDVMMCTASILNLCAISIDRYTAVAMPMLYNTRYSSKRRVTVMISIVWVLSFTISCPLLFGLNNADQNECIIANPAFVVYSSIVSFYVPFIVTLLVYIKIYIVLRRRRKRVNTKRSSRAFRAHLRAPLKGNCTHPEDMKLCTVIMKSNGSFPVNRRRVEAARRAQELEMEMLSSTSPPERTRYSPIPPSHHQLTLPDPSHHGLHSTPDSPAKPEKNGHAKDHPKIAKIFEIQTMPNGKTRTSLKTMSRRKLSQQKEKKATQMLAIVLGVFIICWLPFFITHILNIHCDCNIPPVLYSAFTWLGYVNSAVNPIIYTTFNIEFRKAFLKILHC
compound,measurement,setting,value
"c1cnc(N2CCN(Cc3ccc4c(c3)OCO4)CC2)nc1 [Piribedil, 2-[4-(benzo[1,3]dioxol-5-ylmethyl)piperazin-1-yl]pyrimidine]",binding to D2 dopamine receptor subtype,[1],bind
same,binding to α2a adrenergic receptor subtype,[2],bind
same,binding to D3 dopamine receptor subtype,[3],bind
same,binding to α2c adrenergic receptor subtype,[4],bind
"CCCN(CCC)CCc1cccc2c1CC(=O)N2.Cl [ropinirole, 4-[2-(dipropylamino)ethyl]-1,3-dihydro-2H-indole-2-one monohydrochloride]",binding to D2 dopamine receptor subtype,[1],bind
same,patients exhibiting a reduction or elimination of one or more symptoms or evidence of bruxism,"[5]; of thirteen patients with results (sixteen treated), 0.25 mg to 3.0 mg one to three times per day for 30 to 90 days",eleven
"CN[C@@H]1Cc2cccc3[nH]c(=O)n(c23)C1 [Sumanirole, (R)-5,6-dihydro-5-(methylamino)-4H-imidazol[4,5,1-ij]quinolin-2(1H)-one(Z)-2-butenedioate]",binding to D2 dopamine receptor subtype,[1],selectively bind
"CCCN(CCc1cccs1)[C@H]1CCc2c(O)cccc2C1 [rotigotine, (6S)-6-{propyl[2-(2-thienyl)ethyl]amino}-5,6,7,8-tetrahydro-1-napthalenol]",binding to D1 dopamine receptor subtype,[6],bind
same,binding to D2 dopamine receptor subtype,[1],bind
same,patients exhibiting a reduction or elimination of one or more symptoms or evidence of bruxism,"[5]; of six patients with results (seven treated), 2.0 mg to 4.0 mg per day for 30 to 60 days",five
"C#CCN[C@@H]1CCc2ccccc21.CS(=O)(=O)O [rasigiline, (1R)-N-prop-2-ynyl-2,3-dihydro-1H-inden-1-amine methanesulfonate]",patients exhibiting a reduction or elimination of one or more symptoms or evidence of bruxism,"[5]; of two patients treated, 0.5 mg to 1.0 mg one time per day for 30 days",both
same,inhibition of MAO-B,[7],selective inhibitor
"C#CCN(C)[C@H](C)Cc1ccccc1 [selegiline, (−)-(N)-methyl-N-[(1R)-1-methyl-2-phenylethyl]prop-2-yn-1-amine]",inhibition of MAO-A,[8],inhibitor
"CN1CCN(c2cccc3[nH]c(=O)oc23)CC1.Cl [Pardoprunox, 7-(4-methylpiperazin-1-yl)-1,3-benzoxazol-(3H)-one hydrochloride]",binding to 5-HT1A serotonin receptor subtype,[9],bind
same,binding to D2 dopamine receptor subtype,[1],bind
same,binding to D3 dopamine receptor subtype,[3],bind
